Seven molecules from patent EP0496332A1, “Alpha-aminoquinolinoyl-[3]-penicillines, process for their preparation and their use as antibacterial agents” (ARZNEIMITTELWERK DRESDEN GmbH, priority 1991, dated 1992) can be followed below.

Each structure is given as a SMILES string. Values after ≈ are worked out from the molar mass of the structure shown. Some results are limits rather than exact numbers.

Common to all, as to test: In-vitro test, inhibitory concentration by dilution series
Common to all, as to type: cell-based

In experiment [1] the test system is Enterobacter cloacae. The following applies: XIII = Enterobacter cloacae, Laborstämme, step = concentration with no visible growth; for MIC: read-out: Hemmkonzentration nach Verdünnung (Verdünnungsreihe) (converted). An excerpt: (§1) Die antibiotische Wirksamkeit erfindungsgemäßer Verbindungen wurde in der üblichen Weise durch Ermittlung der Hemmkonzentrationen nach Verdünnung ermittelt.
(§2) Die erhaltenen Ergebnisse sind in der nachstehenden Tabelle zusammengefaßt.

The test system of experiment [2] is Staphylococcus aureus. As to conditions: IX = Staphylococcus aureus, Laborstämme, step = concentration with no visible growth; for MIC: read-out: Hemmkonzentration nach Verdünnung (Verdünnungsreihe) (converted).
Source text: as §1, §2

Experiment [3] relates to Staphylococcus aureus SG 511. As to conditions: II = Staphylococcus aureus SG 511, step = concentration with no visible growth; for MIC: SG511, read-out: Hemmkonzentration nach Verdünnung (Verdünnungsreihe) (converted).
Source text: as §1, §2

Experiment [4] deals with Bacillus subtilis SG 119. The following applies: I = Bacillus subtilis SG 119, step = concentration with no visible growth; for MIC: SG119, read-out: Hemmkonzentration nach Verdünnung (Verdünnungsreihe) (converted).
Source text: as §1, §2

The test system of experiment [5] is Enterokokken. As to conditions: XI = Enterokokken, Laborstämme, step = concentration with no visible growth; for MIC: read-out: Hemmkonzentration nach Verdünnung (Verdünnungsreihe) (converted).
Source text: as §1, §2

The test system of experiment [6] is Staphylococcus epidermidis. The following applies: X = Staphylococcus epidermidis, Laborstämme, step = concentration with no visible growth; for MIC: read-out: Hemmkonzentration nach Verdünnung (Verdünnungsreihe) (converted).
Source text: as §1, §2

In experiment [7] the test system is Proteus vulgaris OX 19. The following applies: III = Proteus vulgaris OX 19, step = concentration with no visible growth; for MIC: OX19, read-out: Hemmkonzentration nach Verdünnung (Verdünnungsreihe) (converted).
Source text: as §1, §2

For experiment [8], the system named is Klebsiella pneumoniae SG 117. As to conditions: VII = Klebsiella pneumoniae SG 117, step = concentration with no visible growth; for MIC: SG117, read-out: Hemmkonzentration nach Verdünnung (Verdünnungsreihe) (converted).
Source text: as §1, §2

The test system of experiment [9] is Escherichia coli. As to conditions: XII = Escherichia coli, Laborstämme, step = concentration with no visible growth; for MIC: read-out: Hemmkonzentration nach Verdünnung (Verdünnungsreihe) (converted).
Source text: as §1, §2

Experiment [10] relates to Serratia marcescens SG 621. As to conditions: VIII = Serratia marcescens SG 621, step = concentration with no visible growth; for MIC: SG621, read-out: Hemmkonzentration nach Verdünnung (Verdünnungsreihe) (converted).
Source text: as §1, §2

Experiment [11] concerns Pseudomonas aeruginosa NCTC 10701. As to conditions: IV = Pseudomonas aeruginosa NCTC 10701, step = concentration with no visible growth; for MIC: NCTC10701, read-out: Hemmkonzentration nach Verdünnung (Verdünnungsreihe) (converted).
Source text: as §1, §2

For experiment [12], the system named is Citrobacter freudii. The following applies: XIV = Citrobacter freudii, Laborstämme, step = concentration with no visible growth; for MIC: read-out: Hemmkonzentration nach Verdünnung (Verdünnungsreihe) (converted).
Source text: as §1, §2

The subject of experiment [13] is Salmonella gallinarium ATCC 9184. The following applies: ATCC9184; VI = Salmonella gallinarium ATCC 9184; step = concentration with no visible growth; read-out: Hemmkonzentration nach Verdünnung (Verdünnungsreihe) (converted).
Source text: as §1, §2

The subject of experiment [14] is Pseudomonas aeruginosa SG 137. As to conditions: V = Pseudomonas aeruginosa SG 137, step = concentration with no visible growth; for MIC: SG137, read-out: Hemmkonzentration nach Verdünnung (Verdünnungsreihe) (converted).
Source text: as §1, §2

Regarding `CCCOCc1cc2ncc(C(=O)N[C@@H](C(=O)N[C@@H]3C(=O)N4[C@@H]3SC(C)(C)[C@@H]4C(=O)O)c3ccccc3)c(OC(=O)OCC)c2cc1CC` [Beisp. 5, 6-[D-(-)-α-([4'-Ethoxycarbonyloxy-6'-ethyl-7'-n-propoxymethylen-chinolinoyl-3']-carboxamido)-α-phenylacetamido]-penicillansäure-Natriumsalz], the MIC in experiment [1] is 6.25 µM (≈ 4.33 µg/mL); in [2], 6.25 µM (≈ 4.33 µg/mL); in experiment [3], 1.56 µM (≈ 1.08 µg/mL); in experiment [4], 0.78 µM (≈ 0.54 µg/mL); in experiment [5], 6.25 µM (≈ 4.33 µg/mL); in [6], 3.12 µM (≈ 2.16 µg/mL). The MIC was 0.78 µM (≈ 0.54 µg/mL) in [7]; 3.12 µM (≈ 2.16 µg/mL) in [8]; 1.56 µM (≈ 1.08 µg/mL) in experiment [9]; 1.56 µM (≈ 1.08 µg/mL) in experiment [10]; 0.78 µM (≈ 0.54 µg/mL) in [11]; 6.25 µM (≈ 4.33 µg/mL) in [12]. The MIC in experiment [13] and in experiment [14] was 3.12 µM (≈ 2.16 µg/mL) in each case.

Turning to `CCc1cc2c(OC(=O)OCC(C)C)c(C(=O)N[C@@H](C(=O)N[C@@H]3C(=O)N4[C@@H]3SC(C)(C)[C@@H]4C(=O)O)c3ccccc3)cnc2cc1COC` [Beisp. 18, 6-[D-(-)-α-([4'-Isobutoxycarbonyloxy-6'-ethyl-7'-methoxymethylen-chinolinoyl-3']-carboxamido)-α-phenylacetamido]-penicillansäure-Natriumsalz], the MIC in experiment [1] is 6.25 µM (≈ 4.33 µg/mL); in experiment [2], 0.39 µM (≈ 0.27 µg/mL); in experiment [3] it was 1.56 µM (≈ 1.08 µg/mL); in experiment [4], 1.56 µM (≈ 1.08 µg/mL); in [5], 25 µM (≈ 17.3 µg/mL); in experiment [6] it was 6.25 µM (≈ 4.33 µg/mL). Besides, the MIC in experiment [7] was 0.39 µM (≈ 0.27 µg/mL); in experiment [8], 0.78 µM (≈ 0.54 µg/mL); in [9], 1.56 µM (≈ 1.08 µg/mL); in [10], 3.12 µM (≈ 2.16 µg/mL); in [11] it was 0.78 µM (≈ 0.54 µg/mL); in experiment [12] it was 6.25 µM (≈ 4.33 µg/mL). Also, the MIC in experiment [13] is 3.12 µM (≈ 2.16 µg/mL); in experiment [14] it was 6.25 µM (≈ 4.33 µg/mL).

As for `CC1(C)S[C@@H]2[C@H](NC(=O)[C@H](N)c3ccccc3)C(=O)N2[C@H]1C(=O)O` [Ampicillin, reference compound], the MIC in experiment [1] was over 200 µM; in experiment [2], 12.5 µM (≈ 4.37 µg/mL); in experiment [3], 0.78 µM (≈ 0.273 µg/mL); in experiment [4] it was 0.2 µM (≈ 0.0699 µg/mL); in experiment [5], 6.25 µM (≈ 2.18 µg/mL); in experiment [6], 6.25 µM (≈ 2.18 µg/mL). For the same molecule, the MIC was 12.5 µM (≈ 4.37 µg/mL) in experiment [7]; 12.5 µM (≈ 4.37 µg/mL) in [8]; 12.5 µM (≈ 4.37 µg/mL) in experiment [9]; 50 µM (≈ 17.5 µg/mL) in experiment [10]; 200 µM (≈ 69.9 µg/mL) in experiment [11]; over 200 µM in experiment [12]. In addition, the MIC is 0.78 µM (≈ 0.273 µg/mL) in [13] and over 200 µM in [14].

In the case of `CCOC(=O)Oc1c(C(=O)N[C@@H](C(=O)N[C@@H]2C(=O)N3[C@@H]2SC(C)(C)[C@@H]3C(=O)O)c2ccccc2)cnc2cc(COc3ccc(Br)cc3)c(CC)cc12` [Beisp. 2, 6-[D-(-)-α-([4'-Ethoxycarbonyloxy-6'-ethyl-7'-(4''-brom)-phenoxymethylen-chinolinoyl-3']-carboxamido)-α-phenylacetamido]-penicillansäure-Natriumsalz], the MIC was 6.25 µM (≈ 5.04 µg/mL) in experiment [1]; 25 µM (≈ 20.1 µg/mL) in experiment [2]; 1.56 µM (≈ 1.26 µg/mL) in experiment [3]; 3.12 µM (≈ 2.51 µg/mL) in experiment [4]; 12.5 µM (≈ 10.1 µg/mL) in experiment [5]; 12.5 µM (≈ 10.1 µg/mL) in experiment [6]. For the same molecule, the MIC is 0.78 µM (≈ 0.628 µg/mL) in experiment [7]; 0.78 µM (≈ 0.628 µg/mL) in experiment [8]; 1.56 µM (≈ 1.26 µg/mL) in experiment [9]; 1.56 µM (≈ 1.26 µg/mL) in experiment [10]; 6.25 µM (≈ 5.04 µg/mL) in experiment [11]; 6.25 µM (≈ 5.04 µg/mL) in experiment [12]. Also, the MIC in [13] was 1.56 µM (≈ 1.26 µg/mL); in experiment [14] it was 12.5 µM (≈ 10.1 µg/mL).

In the case of `CCc1cc2c(OC(=O)OCC(C)C)c(C(=O)N[C@@H](C(=O)N[C@@H]3C(=O)N4[C@@H]3SC(C)(C)[C@@H]4C(=O)O)c3ccccc3)cnc2cc1COC(C)C` [Beisp. 21, 6-[D-(-)-α-([4'-Isobutoxycarbonyloxy-6'-ethyl-7'-isopropoxymethylen-chinolinoyl-3']-carboxamido)-α-phenylacetamido]-penicillansäure-Natriumsalz], the MIC was 6.25 µM (≈ 4.51 µg/mL) in experiment [1]; 12.5 µM (≈ 9.01 µg/mL) in [2]; 1.56 µM (≈ 1.12 µg/mL) in experiment [3]; 1.56 µM (≈ 1.12 µg/mL) in experiment [4]; 12.5 µM (≈ 9.01 µg/mL) in experiment [5]; 6.25 µM (≈ 4.51 µg/mL) in experiment [6]. In addition, the MIC was 0.39 µM (≈ 0.281 µg/mL) in experiment [7]; 0.78 µM (≈ 0.562 µg/mL) in [8]; 1.56 µM (≈ 1.12 µg/mL) in [9]; 1.56 µM (≈ 1.12 µg/mL) in experiment [10]; 0.78 µM (≈ 0.562 µg/mL) in experiment [11]; 6.25 µM (≈ 4.51 µg/mL) in experiment [12]. The MIC in experiment [13] is 3.12 µM (≈ 2.25 µg/mL); in experiment [14] it was 6.25 µM (≈ 4.51 µg/mL).

On to `CCc1cc2c(OC(=O)OCC(C)C)c(C(=O)N[C@@H](C(=O)N[C@@H]3C(=O)N4[C@@H]3SC(C)(C)[C@@H]4C(=O)O)c3ccccc3)cnc2cc1COC(C)CC` (stereo partly drawn) [Beisp. 22, 6-[D-(-)-α-([4'-Isobutoxycarbonyloxy-6'-ethyl-7'-s-butoxymethylen-chinolinoyl-3']-carboxamido)-α-phenylacetamido]-penicillansäure-Natriumsalz], for which the MIC was 6.25 µM (≈ 4.59 µg/mL) in experiment [1]; 25 µM (≈ 18.4 µg/mL) in experiment [2]; 1.56 µM (≈ 1.15 µg/mL) in experiment [3]; 1.56 µM (≈ 1.15 µg/mL) in [4]; 12.5 µM (≈ 9.19 µg/mL) in experiment [5]; 12.5 µM (≈ 9.19 µg/mL) in [6]. For the same molecule, the MIC in [7] is 0.39 µM (≈ 0.287 µg/mL); in experiment [8], 0.78 µM (≈ 0.573 µg/mL); in experiment [9] it was 1.56 µM (≈ 1.15 µg/mL); in experiment [10], 1.56 µM (≈ 1.15 µg/mL); in experiment [11] it was 0.78 µM (≈ 0.573 µg/mL); in experiment [12] it was 3.12 µM (≈ 2.29 µg/mL). Moreover, the MIC in [13] was 1.56 µM (≈ 1.15 µg/mL); in [14], 12.5 µM (≈ 9.19 µg/mL).

For the molecule `CC(C)COC(=O)Oc1c(C(=O)N[C@@H](C(=O)N[C@@H]2C(=O)N3[C@@H]2SC(C)(C)[C@@H]3C(=O)[O-])c2ccccc2)cnc2c1ccc1ccccc12.[Na+]` [Beisp. 12, 6-[D-(-)-α-([4'-Isobutoxycarbonyloxybenzo[1,2n]chinolinoyl-3']-carboxamido)-α-phenylacetamido]-penicillansäure-Natriumsalz], the “Hemmkonzentration nach Verdünnung (Verdünnungsreihe)” value (shortened to “Hemmkonzentration nach Verdünnung”) is given as 6 (= bei 0,00625 mM) in experiment [1]; 6 (= bei 0,00625 mM) in experiment [2]; 9 (= bei 0,00078 mM) in [3]; 7 (= bei 0,00312 mM) in [4]; 5 (= bei 0,0125 mM) in experiment [5]; 7 (= bei 0,00312 mM) in [6]. The “Hemmkonzentration nach Verdünnung” value in experiment [7] was 10 (= bei 0,00039 mM); in experiment [8], 9 (= bei 0,00078 mM); in experiment [9], 7 (= bei 0,00312 mM); in [10], 7 (= bei 0,00312 mM); in experiment [11], 7 (= bei 0,00312 mM); in [12] it was 6 (= bei 0,00625 mM). For the same molecule, the “Hemmkonzentration nach Verdünnung” value in [14] is listed as 5 (= bei 0,0125 mM).
